Assays:
HT-29 [1] = experiment: Anticancer activity against human HT-29 cells xenografted in mouse model assessed as suppression of cancer cell growth relative to control; format: functional
HT-29 [2] = experiment: Anticancer activity against human HT-29 cells xenografted in mouse model assessed as reduction in tumor volume relative to control; format: functional

## O=C(CCCO[N+](=O)[O-])Oc1ccccc1C(=O)Oc1ccc(-c2cc(=S)ss2)cc1
HT-29 [1]
  fold change (FC): 9000
HT-29 [2]
  inhibition (INH): 85%
